Measured values published in patent US12479845B2, “Imidazopyridine derivative compounds and use of same” (HANMI PHARM. CO., LTD., priority 2019, dated 2025).

Experiments:
[1] = molecular target: LSD1 (Homo sapiens (Human), UniProt O60341); experiment: Biochemical analysis of LSD1 histone demethylase inhibition (BPS Bioscience LSD1 fluorescence analysis kit, HRP/Amplex Red); conditions: demethylation of Lys4 of histone H3
Description: The biochemical inhibition activity of the synthesized compounds on LSD1 was measured. The activity measurement was performed using LSD1 fluorescence analysis kit (available from BPS Bioscience Co., Ltd., Catalog No: 50106). This analysis kit is designed to measure activity of LSD1 enzyme. H2O2 generated upon demethylation of Lys4 moiety of histone H3 by LSD1 is reacted with HRP/Amplex Red reagent to form fluorescent Resorufin, which is measured by this kit, thereby confirming demethylation.
The results are expressed as an IC50 value. As for a control, GSK2879552 (available from GlaxoSmithKline USA) was used.

[2] = tested on: NCI-H1417 cells; experiment: Cell growth suppression test (CellTiter-Glo Luminescent Cell Viability Assay, 10 days treatment); type: cell-based; conditions: treated for 10 days
Description: Cell growth suppression effects of the synthesized compounds on NCI-H1417 cells were identified. The cells were treated with the synthesized compounds for 10 days. Then, in order to test the cell growth suppression, CellTiter-Glo Luminescent Cell Viability Assay (available from Promega, USA) was used. This test is to measure emission signals proportional to the number of ATPs based on a fixed amount of ATPs, which represents the presence of metabolically active cells, thereby determining the number of viable cells. The results are expressed as a Gl50 value. As for a control, GSK2879552 (available from GlaxoSmithKline USA) was used.

Row | Compound | IC50 [1] | GI50 ([2]; Homo sapiens, 240 h) | GI50 [2]
1 | N#Cc1ccc(-c2nc3c(N4CCC(N)CC4)ccnc3n2-c2ccc(C3CC3)cc2)cc1 [Example 3, 4-(7-(4-aminopiperidine-1-yl)-3-(4-cyclopropylphenyl)-3H-imidazo[4,5-b]pyridine-2-yl)benzonitrile] | 0.053 µM | 0.23 µM | 
2 | CN(C)c1ccc(-n2c(-c3ccc(C#N)c(F)c3)nc3c(N4CCC[C@@H](N)C4)ccnc32)cc1 [Example 14, (R)-4-(7-(3-aminopiperidine-1-yl)-3-(4-(dimethylamino)phenyl)-3H-imidazo[4,5-b]pyridine-2-yl)-2-fluorobenzonitrile] | 0.026 µM |  | 
3 | CC(=O)O[C@H]1CCN(c2ccc(-n3c(-c4ccc(C#N)c(F)c4)nc4c(N5CCC[C@@H](N)C5)ccnc43)c(F)c2)C1 [Example 32, (S)-1-(4-(7-((R)-3-aminopiperidine-1-yl)-2-(4-cyano-3-fluorophenyl)-3H-imidazo[4,5-b]pyridine-3-yl)-3-fluorophenyl)pyrrolidine-3-yl acetate] | 0.038 µM | 0.046 µM | 
4 | CO[C@H]1CCN(c2ccc(-n3c(-c4ccc(C#N)c(F)c4)nc4c(N5CCC[C@H](N)C5)ccnc43)c(F)c2)C1 [Example 62, 4-(7-((S)-3-aminopiperidine-1-yl)-3-(2-fluoro-4-((S)-3-methoxypyrrolidine-1-yl)phenyl)-3H-imidazo[4,5-b]pyridine-2-yl)-2-fluorobenzonitrile] | 0.036 µM | 0.02 µM | 
5 | CCO[C@H]1CCN(c2ccc(-n3c(-c4ccc(C#N)c(F)c4)nc4c(N5CCC[C@@H](N)C5)ccnc43)c(F)c2)C1 [Example 39] | 0.025 µM | 0.0036 µM | 
6 | N#Cc1ccc(-c2nc3c(N4CCC[C@@H](N)C4)ccnc3n2-c2ccc(C3CC3)cc2)cc1 [Example 5, (R)-4-(7-(3-aminopiperidine-1-yl)-3-(4-cyclopropylphenyl)-3H-imidazo[4,5-b]pyridine-2-yl)benzonitrile] | 0.101 µM | 0.159 µM | 
7 | COC1CN(c2ccc(-n3c(-c4ccc(C#N)c(F)c4)nc4c(N5CCC[C@@H](N)C5)ccnc43)c(F)c2)C1 [Example 31, (R)-4-(7-(3-aminopiperidine-1-yl)-3-(2-fluoro-4-(3-methoxyazetidine-1-yl)phenyl)-3H-imidazo[4,5-b]pyridine-2-yl)-2-fluorobenzonitrile] | 0.03 µM | 0.032 µM | 
8 | N#Cc1ccc(-c2nc3c(N4CCC[C@@H](N)C4)ccnc3n2-c2c(F)cc(C3CC3)cc2F)cc1F [Example 18, (R)-4-(7-(3-aminopiperidine-1-yl)-3-(4-cyclopropyl-2,6-difluorophenyl)-3H-imidazo[4,5-b]pyridine-2-yl)-2-fluorobenzonitrile] | 0.038 µM | 0.046 µM | 
9 | COC1CCN(c2ccc(-n3c(-c4ccc(C#N)c(F)c4)nc4c(N5CCC[C@@H](N)C5)ccnc43)c(F)c2)C1 (stereo partly drawn) [Example 23, 4-(7-((R)-3-aminopiperidine-1-yl)-3-(2-fluoro-4-(3-methoxypyrrolidine-1-yl)phenyl)-3H-imidazo[4,5-b]pyridine-2-yl)-2-fluorobenzonitrile] | 0.017 µM | 0.0048 µM | 
10 | CO[C@@H]1CCN(c2ccc(-n3c(-c4ccc(C#N)c(F)c4)nc4c(N5CCC[C@@H](N)C5)ccnc43)c(F)c2)C1 [Example 24, 4-(7-((R)-3-aminopiperidine-1-yl)-3-(2-fluoro-4-((R)-3-methoxypyrrolidine-1-yl)phenyl)-3H-imidazo[4,5-b]pyridine-2-yl)-2-fluorobenzonitrile] | 0.019 µM | 0.0076 µM | 
11 | CN[C@@H]1CCCN(c2ccnc3c2nc(-c2ccc(C#N)cc2)n3-c2ccc(C3CC3)cc2)C1 [Example 4, (R)-4-(3-(4-cyclopropylphenyl)-7-(3-(methylamino)piperidine-1-yl)-3H-imidazo[4,5-b]pyridine-2-yl)benzonitrile] | 0.044 µM | 0.103 µM | 
12 | Cc1ccc(-n2c(-c3ccc(C#N)c(F)c3)nc3c(N4CCC[C@@H](N)C4)ccnc32)c(F)c1 [Example 7, (R)-4-(7-(3-aminopiperidine-1-yl)-3-(2-fluoro-4-methylphenyl)-3H-imidazo[4,5-b]pyridine-2-yl)-2-fluorobenzonitrile] | 0.026 µM | 0.099 µM | 
13 | N#Cc1ccc(-c2nc3c(N4CCC[C@@H](N)C4)ccnc3n2-c2ccc(N3CCCCC3)cc2)cc1F [Example 9, (R)-4-(7-(3-aminopiperidine-1-yl)-3-(4-(piperidine-1-yl)phenyl)-3H-imidazo[4,5-b]pyridine-2-yl)-2-fluorobenzonitrile] | 0.038 µM | 0.1 µM | 
14 | Cc1ccc(-n2c(-c3ccc(C#N)cc3)nc3c(N4CCC[C@@H](N)C4)ccnc32)cc1 [Example 1, (R)-4-(7-(3-aminopiperidine-1-yl)-3-(p-tolyl)-3H-imidazo[4,5-b]pyridine-2-yl)benzonitrile] | 0.056 µM | 0.09 µM | 
15 | CN[C@@H]1CCCN(c2ccnc3c2nc(-c2ccc(C#N)c(F)c2)n3-c2ccc(N3CCCC3)cc2)C1 [Example 12, (R)-2-fluoro-4-(7-(3-(methylamino)piperidine-1-yl)-3-(4-(pyrrolidine-1-yl)phenyl)-3H-imidazo[4,5-b]pyridine-2-yl)benzonitrile] | 0.024 µM |  | 
16 | N#Cc1ccc(-c2nc3c(N4CCC[C@@H](N)C4)ccnc3n2-c2ccc(N3CC4COCC4C3)cc2F)cc1F (stereo partly drawn) [Example 49, 4-(7-((R)-3-aminopiperidine-1-yl)-3-(2-fluoro-4-(tetrahydro-1H-furo[3,4-c]pyrrole-5(3H)-yl)phenyl)-3H-imidazo[4,5-b]pyridine-2-yl)-2-fluorobenzonitrile] | 0.03 µM | 0.0053 µM | 
17 | N#Cc1ccc(-c2nc3c(N4CCC[C@@H](N)C4)ccnc3n2-c2ccc(N3CC[C@H](Cl)C3)cc2F)cc1F [Example 36, 4-(7-((R)-3-aminopiperidine-1-yl)-3-(4-((S)-3-chloropyrrolidine-1-yl)-2-fluorophenyl)-3H-imidazo[4,5-b]pyridine-2-yl)-2-fluorobenzonitrile] | 0.026 µM | 0.026 µM | 
18 | N#Cc1ccc(-c2nc3c(N4CCC[C@@H](N)C4)ccnc3n2-c2ccc(C3CC3)cc2F)cc1F [Example 11, (R)-4-(7-(3-aminopiperidine-1-yl)-3-(4-cyclopropyl-2-fluorophenyl)-3H-imidazo[4,5-b]pyridine-2-yl)-2-fluorobenzonitrile] | 0.021 µM | 0.024 µM | 
19 | N#Cc1ccc(-c2nc3c(N4CCCC[C@@H](N)C4)ccnc3n2-c2ccc(C3CC3)cc2)cc1F [Example 8, (R)-4-(7-(3-aminoazepane-1-yl)-3-(4-cyclopropylphenyl)-3H-imidazo[4,5-b]pyridine-2-yl)-2-fluorobenzonitrile] | 0.023 µM | 0.056 µM | 
20 | N#Cc1ccc(-c2nc3c(N4CCC[C@@H](N)C4)ccnc3n2-c2c(F)cc(N3CCCC3)cc2F)cc1F [Example 19, (R)-4-(7-(3-aminopiperidine-1-yl)-3-(2,6-difluoro-4-(pyrrolidine-1-yl)phenyl)-3H-imidazo[4,5-b]pyridine-2-yl)-2-fluorobenzonitrile] | 0.029 µM | 0.018 µM | 
21 | CO[C@H]1CCN(c2ccc(-n3c(-c4ccc(C#N)c(F)c4)nc4c(N5CCC6CCNC6C5)ccnc43)c(F)c2)C1 (stereo partly drawn) [Example 61, 2-fluoro-4-(3-(2-fluoro-4-((S)-3-methoxypyrrolidine-1-yl)phenyl)-7-(octahydro-6H-pyrrolo[2,3-c]pyridine-6-yl)-3H-imidazo[4,5-b]pyridine-2-yl)benzonitrile] | 0.038 µM | 0.011 µM | 
22 | N#Cc1ccc(-c2nc3c(N4CCCC[C@@H](N)C4)ccnc3n2-c2ccc(N3CC4COCC4C3)cc2F)cc1F (stereo partly drawn) [Example 73, 4-(7-((R)-3-aminoazepane-1-yl)-3-(2-fluoro-4-(tetrahydro-1H-furo[3,4-c]pyrrole-5(3H)-yl)phenyl)-3H-imidazo[4,5-b]pyridine-2-yl)-2-fluorobenzonitrile] | 0.028 µM |  | 
23 | Cc1ccc(-n2c(-c3ccc(C#N)c(F)c3)nc3c(N4CCC[C@@H](N)C4)ccnc32)cc1 [Example 28, (R)-4-(7-(3-aminopiperidine-1-yl)-3-(p-tolyl)-3H-imidazo[4,5-b]pyridine-2-yl)-2-fluorobenzonitrile] | 0.04 µM | 0.037 µM | 
24 | CO[C@H]1CCN(c2ccc(-n3c(-c4ccc(C#N)c(F)c4)nc4c(N5CCC6(CCNC6)CC5)ccnc43)c(F)c2)C1 [Example 60, (S)-2-fluoro-4-(3-(2-fluoro-4-(3-methoxypyrrolidine-1-yl)phenyl)-7-(2,8-diazaspiro[4.5]decane-8-yl)-3H-imidazo[4,5-b]pyridine-2-yl)benzonitrile] | 0.1 µM | 0.032 µM | 
25 | 4-(7-((R)-3-aminopiperidine-1-yl)-3-(2-fluoro-4-((S)-3-hydroxypyrrolidine-1-yl)phenyl)-3H-imidazo[4,5-b]pyridine-2-yl)-2-fluorobenzonitrile [Example 35] | 0.045 µM |  | 0.017 µM
26 | N#Cc1ccc(-c2nc3c(N4CCC[C@@H](N)C4)ccnc3n2-c2ccc(N3CCCCC3)cc2F)cc1F [Example 10, (R)-4-(7-(3-aminopiperidine-1-yl)-3-(2-fluoro-4-(piperidine-1-yl)phenyl)-3H-imidazo[4,5-b]pyridine-2-yl)-2-fluorobenzonitrile] | 0.04 µM | 0.03 µM | 
